Measured values reported in PMC12396409, “Screening and hit evaluation of a microbial metabolite library against the pathogenic Plasmodium falciparum and Toxoplasma gondii parasites” (International Journal for Parasitology: Drugs and Drug …, 2025).
Where two headings read alike, the source gives them in different places. Where a SMILES comes first, the peptide text is derived from it. Bridges are numbered along the chain shown (N, C = ends). [ ]: non-standard residue; d: D form. The star is where a group is joined. ξ: configuration not given here. ξNMePhe(4-NMe2) = CNC(Cc1ccc(N(C)C)cc1)C(=O)O; Picolinoyl(3-OH) = O=C(c1ncccc1O)*; ξPip(4-oxo) = O=C1CCNC(C(=O)O)C1; Phg = N[CH](C(=O)O)c1ccccc1; Abu = CC[CH](N)C(=O)O

Legend:
[1] = tested on: P. falciparum 3D7 parasites; test: P. falciparum growth inhibition assay, 2-cycle (120 h treatment), delayed-death screen and dose-response; assay type: cell-based, Plasmodium falciparum; conditions: for activity at 2 µg/mL: Plasmodium falciparum, 3D7, 120 h
[2] = tested on: P. falciparum 3D7 parasites; test: P. falciparum growth inhibition assay, 1-cycle (72 h treatment), SYBR DNA staining (library screen at 2 μg/mL and dose-response); assay type: cell-based, Plasmodium falciparum; conditions: 72 h; for activity at 2 µg/mL: Plasmodium falciparum, 3D7, 72 h
[3] = tested on: T. gondii RH strain (RH-Tub-eYFP) tachyzoites; test: microbe, parasite or virus in culture; assay type: cell-based, Toxoplasma gondii; conditions: 72 h, 72 h; for percent parasite growth at 2 µg/mL: Toxoplasma gondii
[4] = library screen at 2 μg/mL, 120 h, % growth, replicate 2
[5] = library screen at 2 μg/mL, % growth, replicate 1
[6] = library screen at 2 μg/mL, % growth, replicate 2
[7] = P. falciparum, 120 h, screen at 2 μg/mL, replicate 1
[8] = P. falciparum, 120 h, screen at 2 μg/mL, replicate 2
[9] = P. falciparum, screen at 2 μg/mL, replicate 1
[10] = P. falciparum, screen at 2 μg/mL, replicate 2
[11] = T. gondii, screen at 2 μg/mL, replicate 1
[12] = T. gondii, screen at 2 μg/mL, replicate 2
[13] = library screen at 2 μg/mL, 120 h, % growth, replicate 1

| Compound | Pf_120h_%Growth_Rep2 [1, 4] [%] | Pf_72h_%Growth_Rep1 [2, 5] [%] | Pf_72h_%Growth_Rep2 [2, 6] [%] | Tg_72h_%Growth_Rep1 [3, 5] [%] | Tg_72h_%Growth_Rep2 [3, 6] [%] | Pf_120h_%Growth_Rep1 [1, 7] [%] | Pf_120h_%Growth_Rep2 [1, 8] [%] | Pf_72h_%Growth_Rep1 [2, 9] [%] | Pf_72h_%Growth_Rep2 [2, 10] [%] | Tg_72h_%Growth_Rep1 [3, 11] [%] | Tg_72h_%Growth_Rep2 [3, 12] [%] | other results |
| --- | --- | --- | --- | --- | --- | --- | --- | --- | --- | --- | --- | --- |
| CCCC[C@]1([C@H](/C=C/C(C)=C/C(=O)O)OC(=O)CCC(=O)O)CC[C@]2(CC[C@H](C)[C@@H](C/C=C(C)/C=C/[C@H](O)[C@@H](C)/C=C/C(=O)O)O2)O1 [Reveromycin B] | – | – | – | – | – | – | – | – | – | – | – | activity at 2 µg/mL ([1]; P. falciparum, 120 h, parasite screen 2 μg/mL, % growth, replicate 1, read-out: Pf_120h_%Growth_Rep1): 78.2%; activity at 2 µg/mL ([1]; P. falciparum, 120 h, parasite screen 2 μg/mL, % growth, replicate 2, read-out: Pf_120h_%Growth_Rep2): 133%; activity at 2 µg/mL ([2]; P. falciparum, parasite screen 2 μg/mL, % growth, replicate 1, read-out: Pf_72h_%Growth_Rep1): 89%; activity at 2 µg/mL ([2]; P. falciparum, parasite screen 2 μg/mL, % growth, replicate 2, read-out: Pf_72h_%Growth_Rep2): 114%; percent parasite growth at 2 µg/mL ([3]; T. gondii, parasite screen 2 μg/mL, % growth, replicate 1, read-out: Tg_72h_%Growth_Rep1): 139%; percent parasite growth at 2 µg/mL ([3]; T. gondii, parasite screen 2 μg/mL, % growth, replicate 2, read-out: Tg_72h_%Growth_Rep2): 87.7% |
| O=C1c2c(O)cc(O)cc2OC1(O)Cc1ccc(O)c(O)c1 (stereo not drawn) [Alphitonin] | 94.83 | 88.31 | 93.84 | 106.55 | 96.34 | – | – | – | – | – | – | Pf_120h_%Growth_Rep1 [1]: 96.34% |
| CCC(=O)[C@@H](C)[C@@H](O)[C@H](C)C[C@@H](C)[C@H]1OC(=O)C[C@@]2(O)CC=C(C)[C@H](O2)/C(C)=C/CCC[C@@H](O[C@H]2C[C@@H](O)[C@H](O)[C@@H](C)O2)/C=C/[C@H](C)C[C@H]1C [Venturicidin B] | – | – | – | – | – | 23.65 | 5.91 | 25.34 | 5.57 | 0.31 | 1.90 | – |
| Nc1cc2nc3ccccc3oc-2cc1=O [Questiomycin A] | – | – | – | – | – | – | – | – | – | – | – | Pf_120h_%Growth_Rep1 ([1]; P. falciparum, 120 h, parasite screen 2 μg/mL, % growth, replicate 1): 44.88%; Pf_120h_%Growth_Rep2 ([1]; P. falciparum, 120 h, parasite screen 2 μg/mL, % growth, replicate 2): 66.03%; Pf_72h_%Growth_Rep1 ([2]; P. falciparum, parasite screen 2 μg/mL, % growth, replicate 1): 72.04%; Pf_72h_%Growth_Rep2 ([2]; P. falciparum, parasite screen 2 μg/mL, % growth, replicate 2): 68.55%; Tg_72h_%Growth_Rep1 ([3]; T. gondii, parasite screen 2 μg/mL, % growth, replicate 1): 83.12%; Tg_72h_%Growth_Rep2 ([3]; T. gondii, parasite screen 2 μg/mL, % growth, replicate 2): 77.23% |
| COC1=C(N)C(=O)c2nc(-c3nc(C(=O)O)c(C)c(-c4cccc(OC)c4O)c3N)ccc2C1=O [Desmethoxystreptonigrin, 10'-] | 8.14 | 2.87 | 4.81 | 4.18 | 4.20 | – | – | – | – | – | – | Pf_120h_%Growth_Rep1 [1, 13]: 0.15% |
| C[C@@H]1CCCCCCCCC[C@H](OC(=O)CCC(=O)O)C(=O)/C=C/C(=O)O1 [A 26771B] | 89.23 | 82.59 | 86.99 | 90.42 | 102.55 | – | – | – | – | – | – | Pf_120h_%Growth_Rep1 [1, 13]: 86.96% |
| COc1cc(/C=N/O)nc(-c2ccccn2)c1 [Caerulomycin] | – | – | – | – | – | 2.50 | -6.36 | 5.29 | 5.34 | 2.08 | 0.20 | – |
| CCC1NC(=O)C(NC(=O)c2ncccc2O)C(C)OC(=O)C(c2ccccc2)NC(=O)C2CC(=O)CCN2C(=O)C(Cc2ccc(N(C)C)cc2)N(C)C(=O)C2CCCN2C1=O (stereo not drawn) [Virginiamycin B] ({Picolinoyl(3-OH)}-T[Abu]P[ξNMePhe(4-NMe2)][ξPip(4-oxo)][Phg]; ester 1-C; configuration not given here) | – | – | – | – | – | 152.31 | 75.63 | 73.90 | 82.34 | 93.06 | 114.46 | – |
